{"source": "patent US9238634B2", "about": "“Anti-inflammatory metabolite derived from omega-3-type fatty acid” (THE UNIVERSITY OF TOKYO, priority 2010, dated 2016)", "tested_on": "PMN (neutrophils)", "assay": "Zymosan peritonitis model, number of PMN (neutrophils) in intraperitoneal cells by FACS", "format": "in vivo, C57BL/6J mice", "conditions": "for PMN (mean % suppression) / Inhibition rate (PMN inhibition): caudal vein, zymosan 1 mg i.p.; for PMN (mean % suppression): two hours; for suppression of neutrophil infiltration: caudal vein (FIG. 4C); for Inhibition rate (PMN inhibition): cells recovered two hours later", "procedure": "[FIG. 4A] […] The model was produced by inducing acute peritonitis by intraperitoneal administration of 1 mg of zymosan to C57BL6 mice. From the left, 17,18-EpETE, 5-hydroxy-17,18-epoxy-ETE (5hy-17,18-EpETE), 8-hydroxy-17,18-epoxy-ETE (8hy-17,18-EpETE), 12-hydroxy-17,18-epoxy-ETE (12hy-17,18-EpETE), and 15-hydroxy-17,18-epoxy-ETE (15hy-17,18-EpETE) respectively ([…]) were injected from a caudal vein of the mouse, and peritonitis was initiated by intraperitoneal administration of 1 mg of zymosan five minutes later. Intraperitoneal cells were recovered two hours later, and the results obtained by analyzing the number of PMN (neutrophils) of each by FACS are shown. […]\nZymosan peritonitis induced by intraperitoneal administration of zymosan, which is a cell wall component of yeast, was used as the inflammation model. This model is suited to the analysis of cytokines and eicosanoids since the intraperitoneal exudate can be recovered.\nZymosan A (Wako Pure Chemical Industries) was suspended in physiological saline to make 1 mg/mL and warmed for 30 minutes at 37° C. The zymosan A solution was then vortexed and returned to room temperature. A compound synthesized in a previous example was placed in a 1.5 mL tube and completely dried by driving off the solvent by nitrogen. It was then dissolved by adding physiological saline. […] Groups injected with only physiological saline (saline) or dexamethasone (10 μg/mouse), which is an anti-inflammatory steroid, were used as controls. Approximately two minutes later, 1 mL of zymosan A solution was administered intraperitoneally. Two hours later, cells that had exuded into the peritoneal cavity were recovered by tube by PBS, and the cells were counted. This tube was then centrifuged for five minutes at 1200 rpm, 4° C., and the supernatant was discarded. The precipitate (pellets) was suspended in PBS, and population analysis was performed by FACS three-color stain.\nPeritoneal cells were adjusted to 2.5×10^6 cells/mL, and 200 μL was placed in a 5 mL round-bottomed tube (BD Falcon) (5×10^5 cells/tube). A quantity of 1 μL/tube of anti-mouse CD16/CD32 antibody (0.5 mg/mL; BD Biosciences) was added to this tube and incubated for 10 minutes at room temperature. Staining antibody mix (1.0 μL/sample of FITC-bound anti-mouse F4/80 antibody (0.5 mg/mL; eBioscience), 0.5 μL of PE-bound anti-mouse Ly-6G&Ly-6C antibody (0.2 mg/mL; eBioscience), and 0.5 μL of perCP-Cy5.5-bound anti-mouse CD11b antibody (0.2 mg/mL; eBioscience) per sample prepared by dilution by 50 μL of PBS) was added to this tube in a quantity of 50 μL/tube and incubated for 15 minutes at room temperature shielded from light. Measurement was performed by an FACS Calibur (BD Biosciences).", "key": {"[1]": {"conditions": "100 ng, Table 3 (FIG. 4A), mean of 4-6 studies"}, "[2]": {"conditions": "100 ng, Table 5 (FIG. 4B), mean of 3-4 studies"}, "[3]": {"conditions": "100 ng, Table 6 (FIG. 4D), mean of 6-11 studies"}, "[4]": {"conditions": "100 ng, Table 4 (FIG. 4B), mean of 3-4 studies"}}, "data": [{"compound": "CCC1OC1C/C=C\\C/C=C\\C/C=C\\C/C=C\\CCCC(=O)O", "note": "(stereo not shown) [17,18-EpETE, 17,18-epoxyeicosatetraenoic acid, reference compound]", "values": [{"measurement": "PMN (mean % suppression)", "setting": "[1]", "value": 0.0, "unit": "%"}]}, {"compound": "CCC1OC1CC=CCC=CCC=CC=CC(O)CCCC(=O)O", "note": "(stereo not shown) [5-hy-17,18-EpETE, 5-hydroxy-17,18-epoxy-eicosatetraeonic acid]", "values": [{"measurement": "PMN (mean % suppression)", "setting": "[1]", "value": 50.6, "unit": "%"}]}, {"compound": "CCC1OC1CC=CCC(O)C=CC=CCC=CCC=CCCC(=O)O", "note": "(stereo not shown) [14-hy-19,20-EpDPE, 14-hydroxy-19,20-epoxy-docosapentaeonic acid]", "values": [{"measurement": "PMN (mean % suppression)", "setting": "[2]", "value": 57.3, "unit": "%"}]}, {"compound": "CCC1OC1C/C=C\\C/C=C\\C=C\\C(O)C/C=C\\CCCC(=O)O", "note": "(stereo not shown) [8-hy-17,18-EpETE, 8-hydroxy-17,18-epoxy-eicosatetraenoic acid]", "values": [{"measurement": "PMN (mean % suppression)", "setting": "[1]", "value": 10.4, "unit": "%"}]}, {"compound": "CCC1OC1C/C=C\\C/C=C\\C=C\\C(O)C/C=C\\CCCCCC(=O)O", "note": "(stereo not shown) [10hy-19,20-EpDTE, 10-hydroxy-19,20-epoxy-docosatetraenoic acid]", "values": [{"measurement": "suppression of neutrophil infiltration, result in words", "setting": "100 ng", "value": "tendency toward suppression"}, {"measurement": "PMN (mean % suppression)", "setting": "[3]", "value": 8.27, "unit": "%"}]}, {"compound": "CCC1OC1CC(O)C=CC=CCC=CCC=CCC=CCCC(=O)O", "note": "(stereo not shown) [17-hy-19,20-EpDPE, 17-hydroxy-19,20-epoxy-docosapentaenoic acid]", "values": [{"measurement": "PMN (mean % suppression)", "setting": "[2]", "value": 59.5, "unit": "%"}]}, {"compound": "CCC1OC1CC=CCC=CCC=CCC=CC=CC(O)CCC(=O)O", "note": "(stereo not shown) [4-hy-19,20-EpDPE, 4-hydroxy-19,20-epoxy-docosapentaenoic acid]", "values": [{"measurement": "suppression of neutrophil infiltration, result in words", "setting": "100 ng", "value": "tend to suppress neutrophil infiltration"}, {"measurement": "PMN (mean % suppression)", "setting": "[4]", "value": 2.1, "unit": "%"}, {"measurement": "PMN (mean % suppression)", "setting": "500 ng, Table 4 (FIG. 4B)", "value": 0.0, "unit": "%"}]}, {"compound": "CCC1OC1CC=CCC=CC=CC(O)CC=CCC=CCCC(=O)O", "note": "(stereo not shown) [10-hy-19,20-EpDPE, 10-hydroxy-19,20-epoxy-docosapentaenoic acid]", "values": [{"measurement": "PMN (mean % suppression)", "setting": "[2]", "value": 20.7, "unit": "%"}]}, {"compound": "CCC1OC1CC=CCC(O)C=CC=CCC=CCCCC(=O)O", "note": "(stereo not shown) [12hy-17,18-EpETE, 12-hydroxy-17,18-epoxy-eicosatetraenoic acid]", "values": [{"measurement": "suppression of neutrophil infiltration", "setting": "1 ng/mouse", "value": 30, "unit": "%"}, {"measurement": "suppression of neutrophil infiltration", "setting": "10 ng/mouse", "value": "approximately 40%"}, {"measurement": "PMN (mean % suppression)", "setting": "[1]", "value": 48.4, "unit": "%"}, {"measurement": "neutrophil-suppressing activity compared with dexamethasone control", "setting": "1 or 10 ng/mouse versus 10 μg/mouse of dexamethasone", "value": "equivalent to or better than"}, {"measurement": "Inhibition rate (PMN inhibition)", "setting": "dose 0.44 ng", "value": 28.8, "unit": "%"}, {"measurement": "Inhibition rate (PMN inhibition)", "setting": "dose 4.35 ng", "value": 39.3, "unit": "%"}, {"measurement": "Inhibition rate (PMN inhibition)", "setting": "dose 43.48 ng", "value": 56.3, "unit": "%"}, {"measurement": "Inhibition rate (PMN inhibition)", "setting": "dose 434.8 ng", "value": 49.8, "unit": "%"}, {"measurement": "dose dependence of PMN inhibition", "setting": "doses 0.44 to 434.3 ng (FIG. 4C)", "value": "dose-dependent"}]}, {"compound": "14-hydroxy-19,20-epoxy-docosatetraenoic acid [14hy-19,20-EpDTE]", "values": [{"measurement": "suppression of neutrophil infiltration, result in words", "setting": "100 ng", "value": "statistically significant effects"}, {"measurement": "PMN (mean % suppression)", "setting": "[3]", "value": 15.35, "unit": "%"}]}, {"compound": "CCC1OC1CC=CCC=CCC=CC=CC(O)CC=CCCC(=O)O", "note": "(stereo not shown) [7-hy-19,20-EpDPE, 7-hydroxy-19,20-epoxy-docosapentaenoic acid]", "values": [{"measurement": "PMN (mean % suppression)", "setting": "[4]", "value": 0.0, "unit": "%"}, {"measurement": "suppression of neutrophil infiltration, result in words", "setting": "500 ng", "value": "tend to suppress neutrophil infiltration"}, {"measurement": "PMN (mean % suppression)", "setting": "500 ng, Table 4 (FIG. 4B)", "value": 8.7, "unit": "%"}]}, {"compound": "CCC1OC1CC=CCC=CCC=CCC=CCC=CCCC(=O)O", "note": "(stereo not shown) [19,20-EpDPE, 19,20-epoxydocosapentaenoic acid, reference compound]", "values": [{"measurement": "PMN (mean % suppression)", "setting": "[4]", "value": 0.0, "unit": "%"}, {"measurement": "PMN (mean % suppression)", "setting": "[2]", "value": 0.0, "unit": "%"}]}, {"compound": "17-hydroxy-19,20-epoxy-docosatetraenoic acid [17hy-19,20-EpDTE]", "values": [{"measurement": "suppression of neutrophil infiltration, result in words", "setting": "100 ng", "value": "statistically significant effects"}, {"measurement": "PMN (mean % suppression)", "setting": "[3]", "value": 23.28, "unit": "%"}]}, {"compound": "CCC1OC1CC=CC=CC(O)CC=CCC=CCC=CCCC(=O)O", "note": "(stereo not shown) [13-hy-19,20-EpDPE, 13-hydroxy-19,20-epoxy-docosapentaenoic acid]", "values": [{"measurement": "PMN (mean % suppression)", "setting": "[2]", "value": 12.0, "unit": "%"}]}, {"compound": "CCC1OC1CC(O)/C=C/C=C\\C/C=C\\C/C=C\\CCCC(=O)O", "note": "(stereo not shown) [15-hy-17,18-EpETE, 15-hydroxy-17,18-epoxy-eicosatetraenoic acid]", "values": [{"measurement": "PMN (mean % suppression)", "setting": "[1]", "value": 42.9, "unit": "%"}]}]}
